Reference: patent US11191762B2, “Alkyl substituted triazole compounds as agonists of the APJ Receptor” (priority 2016, dated 2021)

Each compound was assayed against human APJ receptor (Homo sapiens (Human), UniProt P35414) (assay: biochemical). Details: [35S]GTPγS binding, membranes from CHO cells stably expressing human APJ receptor; read-out: Activity hAPJ SPA EC50 IP.
Format: biochemical
Procedure: The human APJ receptor was cloned by polymerase chain reaction and the gene encoding the receptor was subcloned in pFLAG-CMV™-3 expression vector (Sigma, Saint Louis, Mo. USA) in-house at Amgen. A GTPγS binding assay was performed on membranes prepared from CHO cells stably expressing human APJ receptor. The optimum experimental conditions for the concentrations of GDP, MgCl2, and NaCl in the assay buffer were initially determined. The assay was performed in 9 μL assay buffer [20 mM HEPES, pH 7.5, 5 mM MgCl2, 100 mM NaCl and 0.1% (w/v) BSA], 1 μL of diluted test compound (starting with 0.75 mM, 2-fold serial dilution with DMSO, total 22 points), 10 μL of 18 µM GDP (final concentration of 3 μM GDP), 20 μL of […] membrane protein expressing human APJ receptor captured with WGA PS beads (final concentration of 5 μg per well), and 20 μL of 0.3 nM [^35S]GTPγS (final concentration is 0.1 nM [^35S]GTPγS)(Perkin Elmer Life and Analytical Sciences, Waltham USA).

human APJ receptor, sequence (P35414 whole entry): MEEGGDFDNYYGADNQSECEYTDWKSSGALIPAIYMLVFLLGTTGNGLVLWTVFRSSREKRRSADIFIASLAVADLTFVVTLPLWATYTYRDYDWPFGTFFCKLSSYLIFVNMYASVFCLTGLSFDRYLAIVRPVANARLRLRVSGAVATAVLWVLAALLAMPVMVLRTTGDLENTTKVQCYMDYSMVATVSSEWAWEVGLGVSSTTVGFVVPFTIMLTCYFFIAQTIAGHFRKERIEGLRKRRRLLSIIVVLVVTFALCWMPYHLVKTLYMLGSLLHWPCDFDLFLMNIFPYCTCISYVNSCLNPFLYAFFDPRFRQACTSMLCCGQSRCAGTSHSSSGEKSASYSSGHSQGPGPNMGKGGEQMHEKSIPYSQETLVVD

Row | Compound | EC50 [nM]
1 | COc1cccc(OC)c1-n1c(Cc2cc[nH]n2)nnc1NS(=O)(=O)[C@@H](C)[C@H](C)c1ncc(Cl)cn1 [Example 39.0, (2S,3R)-3-(5-chloro-2-pyrimidinyl)-N-(4-(2,6-dimethoxyphenyl)-5-(1H-pyrazol-3-ylmethyl)-4H-1,2,4-triazol-3-yl)-2-butanesulfonamide] | 5.8
2 | COc1cccc(OC)c1-n1c(CC(C)(C)OC)nnc1NS(=O)(=O)[C@@H](C)[C@H](C)c1ncc(Cl)cn1 [Example 40.0, (2S,3R)-3-(5-chloro-2-pyrimidinyl)-N-(4-(2,6-dimethoxyphenyl)-5-(2-methoxy-2-methylpropyl)-4H-1,2,4-triazol-3-yl)-2-butanesulfonamide] | 110
3 | COc1cccc(OC)c1-n1c(CN2CCCC2=O)nnc1NS(=O)(=O)[C@@H](C)[C@H](C)c1ncc(Cl)cn1 [Example 41.0, (2S,3R)-3-(5-chloro-2-pyrimidinyl)-N-(4-(2,6-dimethoxyphenyl)-5-((2-oxo-1-pyrrolidinyl)methyl)-4H-1,2,4-triazol-3-yl)-2-butanesulfonamide] | 320
4 | COc1cccc(OC)c1-n1c(Cn2ccccc2=O)nnc1NS(=O)(=O)[C@@H](C)[C@H](C)c1ncc(Cl)cn1 [Example 42.0, (2S,3R)-3-(5-chloro-2-pyrimidinyl)-N-(4-(2,6-dimethoxyphenyl)-5-((2-oxo-1(2H)-pyridinyl)methyl)-4H-1,2,4-triazol-3-yl)-2-butanesulfonamide] | 330
5 | COc1cccc(OC)c1-n1c(Cc2cccs2)nnc1NS(=O)(=O)[C@@H](C)[C@H](C)c1ncc(Cl)cn1 [Example 43.0, (2S,3R)-3-(5-chloro-2-pyrimidinyl)-N-(4-(2,6-dimethoxyphenyl)-5-(2-thiophenylmethyl)-4H-1,2,4-triazol-3-yl)-2-butanesulfonamide] | 2.7
6 | COc1cccc(OC)c1-n1c(Cc2nc(C)cs2)nnc1NS(=O)(=O)[C@@H](C)[C@H](C)c1ncc(Cl)cn1 [Example 44.0, (2S,3R)-3-(5-chloro-2-pyrimidinyl)-N-(4-(2,6-dimethoxyphenyl)-5-((4-methyl-1,3-thiazol-2-yl)methyl)-4H-1,2,4-triazol-3-yl)-2-butanesulfonamide] | 36
7 | COc1cccc(OC)c1-n1c(Cc2ccncc2)nnc1NS(=O)(=O)[C@@H](C)[C@H](C)c1ncc(Cl)cn1 [Example 45.0, (2S,3R)-3-(5-chloro-2-pyrimidinyl)-N-(4-(2,6-dimethoxyphenyl)-5-(4-pyridinylmethyl)-4H-1,2,4-triazol-3-yl)-2-butanesulfonamide] | 1.7
8 | COc1cccc(OC)c1-n1c(COc2ccccc2)nnc1NS(=O)(=O)[C@@H](C)[C@H](OC)c1ncc(C)cn1 [Example 48.0, (1R,2S)—N-(4-(2,6-Dimethoxyphenyl)-5-(phenoxymethyl)-4H-1,2,4-triazol-3-yl)-1-methoxy-1-(5-methyl-2-pyrimidinyl)-2-propanesulfonamide] | 440
9 | COc1ccc(Cc2nnc(NS(=O)(=O)[C@@H](C)[C@H](OC)c3ncc(C)cn3)n2-c2c(OC)cccc2OC)cc1 [Example 49.0] | 170
10 | COc1cccc(OC)c1-n1c(Cc2ccc(F)cc2)nnc1NS(=O)(=O)[C@@H](C)[C@H](OC)c1ncc(C)cn1 [Example 50.0] | 940
11 | COc1cccc(OC)c1-n1c(CCN(C)C)nnc1NS(=O)(=O)[C@@H](C)[C@H](OC)c1ncc(C)cn1 [Example 51.0] | 520
12 | COc1cccc(OC)c1-n1c(CN2CCCCCC2=O)nnc1NS(=O)(=O)[C@@H](C)[C@H](OC)c1ncc(C)cn1 [Example 52.0] | 650
13 | COc1cccc(OC)c1-n1c(CCN2CCN(C)CC2)nnc1NS(=O)(=O)[C@@H](C)[C@H](OC)c1ncc(C)cn1 [Example 53.0] | 54
14 | COc1cccc(OC)c1-n1c(Cc2ccccc2)nnc1NS(=O)(=O)[C@@H](C)[C@H](OC)c1ncc(C)cn1 [Example 54.0] | 300
